The results in this text go back to PMC7226370, “Thymus algeriensis and Thymus fontanesii: Chemical Composition, In Vivo Antiinflammatory, Pain Killing and Antipyretic Activities: A Comprehensive Comparison” (Biomolecules, 2020).

Experiment [1] has as its target lipoxygenase (5-LOX). The experiment is described as follows: Lipoxygenase inhibitor screening assay kit. Type of experiment: biochemical. The note with it: in vitro, mean ± SEM, n = 3. The method, then: The potential of T. algeriensis and T. fontanesii extracts to inhibit lipoxygenase was evaluated using a lipoxygenase inhibitor screening assay kit (Cayman Chemical, AnnArbor, MI, USA) according to the manufacturer’s instructions and the study by Adellall et al..

Experiment [2] can be described thus: Total antioxidant capacity (TAC) ELISA kit. The note with it: mean ± SEM, n = 3. The protocol: The total antioxidant capacity of the extracts was evaluated against ascorbic acid as a reference standard using the commercially available TAC ELISA kit (MBS726896, my BioSource, Inc., San Diego, CA, USA) according to the manufacturer’s instructions and according to Sobeh et al..
(In general: ELISA stands for enzyme-linked immunosorbent assay.)

Experiment [3] deals with Brewer's yeast induced pyrexia in mice. Nature of the experiment: Brewer's yeast induced pyrexia. Type of experiment: in vivo, mouse. The note with it: in °C (unit assumed). The protocol: Pyrexia in mice was induced as described by Liu et al. with minor modifications. The initial rectum temperature of each animal was measured using a lubricated digital thermometer. Brewer’s yeast suspension was prepared in normal saline (30%) and injected subcutaneously behind the animal’s neck (1 mL/100 g). After 18 h, animals’ rectal temperatures were measured again (T0). […] Pyretic animals were treated orally with either T. algeriensis or T. fontanesii extracts in three dose levels (200, 400, and 600 mg/kg), paracetamol (150 mg/kg), or vehicle. Rectal temperatures were measured at 30 min, 1, 2, 3 and 24 h following the different treatments.

Experiment [4] concerns carrageenan-induced hind paw edema in rats. The experiment is described as follows: Carrageenan-induced hind-paw edema model. Type of experiment: in vivo, rat. The note with it: 1 h before carrageenan. The protocol:
Nine groups of male rats (200-220 g) with five animals per group were used in this experiment. Induction of edema in the rats' right hind paw was done by injecting 0.1 mL freshly prepared carrageenan solution (1% in 0.9% NaCl), into the sub-plantar tissue. […] By the aid of a caliper ruler, the paw thickness (mm) was measured in the dorsal- plantar axis before and after injecting the carrageenan solution, and at hourly intervals for 5 h, and finally at 24 h. The cumulative anti-inflammatory effect during the whole observation period (0-24 h) was determined by calculating the area under the changes in paw thickness-time curve (AUC0-24).

Experiment [5] has as its system leukocyte migration into the peritoneal cavity in mice. Nature of the experiment: Carrageenan-induced leukocyte recruitment into peritoneal cavity. It is filed as in vivo, mouse. The protocol:
Three hours later, the mice were euthanized, and each peritoneal cavity was washed with 3 mL of phosphate-buffered saline (PBS) containing 1mM ethylenediaminetetraacetic acid (EDTA). The total leukocytes count was determined in each peritoneal cavity wash using a hemocytometer and presented as number of cells/mL.

Experiment [6] deals with acetic acid-induced vascular permeability in mice. The experiment is described as follows: Acetic acid-induced vascular permeability (Evans blue). It is filed as in vivo, mouse. The protocol:
Acetic acid-induced vascular permeability was done as described by Sobeh et al.. […] One group of mice was injected with normal saline to serve as normal control. Mice were euthanized 30 min later by cervical dislocation, the abdominal cavities were washed with 3 mL saline solution, and the collected washings were then centrifuged at 3000 rpm for 10 min. The vascular permeability is proportional to the absorbance of Evans blue dye in the supernatant, which was detected at 610 nm using a plate reader (Biotech, Winooski, VT, USA).

As usually defined, the IC50 is the midpoint of a concentration-inhibition curve. A high value points to weaker potency in that assay. In experiment [1], `CC(c1cc2ccccc2s1)N(O)C(N)=O` (stereo not drawn) [Zileuton] gave a 50% inhibitory concentration (IC50) of 3200 ± 150 nM.
As to `O=C1O[C@H]([C@@H](O)CO)C(O)=C1O` [Ascorbic Acid], the “TAC (total antioxidant capacity)” value in experiment [2] was 27.6 ± 1.40 U/L.
Regarding `CC(=O)Nc1ccc(O)cc1` [Paracetamol], the “Rectal Temperature Recorded Following Different Treatments, 30 min” value in experiment [3] (150 mg/kg p.o., 30 min) was found to be 38.18 ± 0.20. The “Rectal Temperature Recorded Following Different Treatments, 1 h” value in experiment [3] (150 mg/kg p.o., 1 h) is given as 37.56 ± 0.30. Further, the “Rectal Temperature Recorded Following Different Treatments, 2 h” value in experiment [3] (150 mg/kg p.o., 2 h) is reported as 37.06 ± 0.29. Moreover, in experiment [3] (150 mg/kg p.o., 3 h), the “Rectal Temperature Recorded Following Different Treatments, 3 h” value amounted to 36.94 ± 0.25. Further, in experiment [3] (150 mg/kg p.o., 24 h), the “Rectal Temperature Recorded Following Different Treatments, 24 h” value worked out at 36.54 ± 0.23. In experiment [3] (group of 150 mg/kg, before treatment (T0)), the “Rectal Temperature measured at 18 h after yeast injection” value is on record as 38.66 ± 0.18.
On to `O=C(O)Cc1ccccc1Nc1c(Cl)cccc1Cl` [Diclofenac], for which the “reduction of paw thickness, of control AUC0-24” value in experiment [4] (20 mg/kg p.o.) worked out at 44%. Moreover, the “reduction in leucocyte number” value in experiment [5] (20 mg/kg p.o. before carrageenan 500 µg i.p.) came to 39%. Further, in experiment [6] (20 mg/kg), the “lower Evans blue readings compared to control” value turned out to be 73%. In experiment [1], this compound registered an IC50 of 2600 ± 210 nM.
Take `C[C@@H]1C[C@H]2[C@@H]3CCC4=CC(=O)C=C[C@]4(C)[C@@]3(F)[C@@H](O)C[C@]2(C)[C@@]1(O)C(=O)CO` [dexamethasone]: in experiment [4] (2 mg/kg p.o.), the “reduction in AUC0-24 values compared to vehicle-treated rats” value is on record as 51%. The “reduction in leucocyte number” value in experiment [5] (2 mg/kg p.o. before carrageenan 500 µg i.p.) was found to be 30%. The “lower Evans blue readings compared to control” value in experiment [6] (2 mg/kg) came to 60%.
